The values that follow come from patent publication US12195452B2, “N-(4-(oxazol-5-yl)phenyl) chromane-3-carboxamide derivatives and related compounds as stimulators of the production of retinal precursor cells for the treatment of neuroretinal diseases” (ENDOGENA THERAPEUTICS, INC., priority 2018, dated 2025).

The first assay relates to retinal precursor cells. As to the kind of experiment: Sphere passaging and high-throughput drug screening: proliferation of retinal precursor cells from the ciliary epithelium, cell number after one week. The class given is cell-based, mammalian. Conditions: control experiment (absence of a compound) = 100; cells grown for one week. How it is done: Kynurenic Acid (0.2 mg/mL), trypsin (1.33 mg/mL), and hyaluronidase (0.67 mg/mL) were weighed out and dissolved in high magnesium/low calcium artificial cerebral spinal fluid (aCSF) at 37° C. Fibroblast growth factor 2 (FGF2; 10 ng/mL) and heparin (2 μg/mL) were added to 100 mL of serum-free media (SFM). Ovomucoid trypsin inhibitor (1 mg/mL) was dissolved in warm SFM and sterile filtered ([…]).
A dissecting microscope, cold light source, and sterile surgical instruments were set up inside of a sterile biological safety cabinet (BSC). Mammalian eyes were enucleated and placed in a petri dish containing cold, sterile aCSF. Under the dissecting microscope, hair, connective tissue, and the dorsal and ventral oblique muscles were cleared from the scleral/corneal border with two sets of forceps. Next, curved or angled micro-dissecting scissors were used to cleave any remaining extraocular muscle tissue, the optic nerve, and cut the eyeball into symmetrical halves; beginning and finishing the cut from the hole left by the optic nerve. Using two sets of forceps to grasp the cornea, the two eye halves were peeled apart. The lens, optic nerve, and vitreous were separated from the eye shells and the eye shells were transferred into a new petri dish (also containing cold, sterile aCSF). To isolate the ciliary epithelium (CE), eye shells were oriented with the cornea on the right and retinal pigmented epithelium (RPE) on the left. A pair of straight forceps were used to pin down the eye shell on the RPE side while a scalpel blade was inserted between the CE and the iris, using pressure to slice the iris/cornea side off from the rest of the shell. Next, the scalpel was run along the border between the CE and the RPE to obtain the CE isolated as a thin strip of tissue. The CE strips were then transferred to a 35 mm dish containing 2 mL of dispase solution (Sigma; T1005) and incubated for 10 minutes at 37° C. Next, the strips were transferred from dispase into a 35 mm dish containing 2 mL of sterile filtered kynurenic acid, trypsin and hyaluronidase solution and incubated at 37° C. for 10 minutes. After incubation, the dish was returned to the dissecting scope, and the CE strips were pinned down with straight, non-serrated forceps, while non-serrated curved forceps were used to scrape the CE off from the underlying sclera. The bare scleral strips were then discarded, such that only the CE cells remained in the enzyme solution. Using a fire-polished, cotton-plugged glass pipette, the cells and enzyme solution were transferred to a 15 mL tube and triturated approximately 45 times to break apart the tissue. The 15 mL tube/cell suspension was centrifuged for 5 minutes at 1500 rpm. The supernatant was gently aspirated from the resulting pellet using a fire-polished, cotton-plugged glass pipette and 2 mL of trypsin inhibitor solution was added to the pellet. Using a small borehole, fire-polished, cotton-plugged glass pipette, the sample was triturated approximately 45 times until it was a single-cell suspension. The 15 mL tube/cell suspension was centrifuged for 5 minutes at 1500 rpm. The supernatant was gently aspirated from the resulting pellet and 1-2 mL of SFM with FGF2 and heparin (plating media) was added. The cells and media were mixed to ensure a uniform cell suspension and a 10 uL sample was taken and cell density was determined. The cells were then seeded and cultured at 10c/μL in culture-treated plates or flasks. After one week, roughly 1 in 500 cells proliferated to form free-floating, clonal spheres greater than 80 μm in diameter.
Human-derived spheres were passaged using the kynurenic acid, trypsin, hyaluronidase enzyme solution with the addition of collagenase I (0.5 mg/mL), collagenase II (0.5 mg/mL) and elastase (0.1 mg/mL). Mouse-derived spheres were passaged using hyaluronidase (0.67 mg/mL), collagenase I (0.5 mg/mL), and collagenase II (0.5 mg/mL) dissolved in Accustase solution (Sigma; SCR005). […]
`COc1cc(NC(=O)C2COc3ccccc3C2)ccc1-c1ccncc1` (racemic) [Compound 17, N-(3-methoxy-4-(pyridin-4-yl)phenyl)chromane-3-carboxamide]: the “Cell proliferation within one week [%]” value is 114%.

For `Cc1ncc(-c2ccc(NC(=O)C3COc4ccccc4C3)cc2Cl)o1` (racemic) [Compound 30, N-(3-chloro-4-(2-methyloxazol-5-yl)phenyl)chromane-3-carboxamide], the “Cell proliferation within one week [%]” value is listed as 119%. Turning to `O=C(Nc1ccc(-c2cnco2)c(Cl)c1)C1COc2cc(F)ccc2C1` (racemic) [Compound 37, N-(3-chloro-4-(oxazol-5-yl)phenyl)-7-fluorochromane-3-carboxamide], the “Cell proliferation within one week [%]” value turned out to be 158%. On the same count and under the same terms, to `O=C(Nc1ccc(-c2cnco2)c(Cl)c1)C1COc2ccccc2O1` (racemic) [Compound 41, N-(3-chloro-4-(oxazol-5-yl)phenyl)-2,3-dihydrobenzo[b][1,4]dioxine-2-carboxamide] belongs 114%. Still for that read-out and setting: to `COc1ccc2c(c1)CC(C(=O)Nc1ccc(-c3cnco3)c(F)c1)CO2` (racemic) [Compound 10, N-(3-fluoro-4-(oxazol-5-yl)phenyl)-6-methoxychromane-3-carboxamide] belongs 121%.

Regarding `O=C(CC1Cc2ccccc2O1)Nc1ccc(-c2cnco2)c(Cl)c1` (racemic) [Compound 34, N-(3-chloro-4-(oxazol-5-yl)phenyl)-2-(2,3-dihydrobenzofuran-2-yl)acetamide], the “Cell proliferation within one week [%]” value was 129%. On the same count and under the same terms, then `O=C(Nc1ccc(-c2cnco2)c(Cl)c1)C1COc2ccc(F)cc2C1` (stereo not drawn) [Compound 42, N-(3-chloro-4-(oxazol-5-yl)phenyl)-6-fluorochromane-3-carboxamide], with 124%. As to `COc1cc(NC(=O)C2COc3ccccc3O2)ccc1-c1ccncc1` (racemic) [Compound 19, N-(3-methoxy-4-(pyridin-4-yl)phenyl)-2,3-dihydrobenzo[b][1,4]dioxine-2-carboxamide], the “Cell proliferation within one week [%]” value stood at 110%. Still for that read-out and setting: to `O=C(Nc1ccc(-c2cnco2)c(F)c1)C1CCOc2ccccc21` (racemic) [Compound 4, N-(3-fluoro-4-(oxazol-5-yl)phenyl)chromane-4-carboxamide] belongs 106%; to `COc1cc(NC(=O)C2CCOc3ccccc32)ccc1-c1ccncc1` (racemic) [Compound 15, N-(3-methoxy-4-(pyridin-4-yl)phenyl)chromane-4-carboxamide], 122%; to “N-(2-(difluoromethoxy)-4-(oxazol-5-yl)phenyl)chroman-3-carboxamide [Compound 27]”, 106%. Same read-out and setting: then `COc1cccc2c1CC(C(=O)Nc1ccc(-c3cnco3)c(Cl)c1)CO2` (racemic) [Compound 40, N-(3-chloro-4-(oxazol-5-yl)phenyl)-5-methoxychromane-3-carboxamide], with 107%; and `Cc1cc(-c2cnco2)ccc1NC(=O)C1COc2ccccc2C1` (racemic) [Compound 23, N-(2-methyl-4-(oxazol-5-yl)phenyl) chroman-3-carboxamide], with 116%; and `Cc1cc(NC(=O)C2COc3ccccc3C2)ccc1-c1cnco1` (stereo not drawn) [Compound 25, N-(3-methyl-4-(oxazol-5-yl)phenyl)chromane-3-carboxamide], with 120%. The same measure, in the same setting: to `O=C(Nc1ccc(-n2cncn2)c(C(F)(F)F)c1)C1COc2ccccc2C1` (racemic) [Compound 28, N-(4-(1H-1,2,4-triazol-1-yl)-3-(trifluoromethyl)phenyl)chromane-3-carboxamide] belongs 118%; to `COc1ccc2c(c1)CC(C(=O)Nc1ccc(-c3cnco3)c(OC)c1)CO2` (racemic) [Compound 14, 6-methoxy-N-(3-methoxy-4-(oxazol-5-yl)phenyl)chromane-3-carboxamide], 196%; to `O=C(Nc1ccc(-c2cnco2)c(F)c1)C1COc2ccccc2O1` (racemic) [Compound 9, N-(3-fluoro-4-(oxazol-5-yl)phenyl)-2,3-dihydrobenzo[b][1,4]dioxine-2-carboxamide], 118%. On to `O=C(Nc1ccc(-c2cnco2)c(Cl)c1)C1COc2ccccc2C1` (racemic) [Compound 1, N-(3-chloro-4-(1,3-oxazol-5-yl)phenyl) chromane-3-carboxamide], for which the “Cell proliferation within one week [%]” value is listed as 179%. On to `COc1cc(NC(=O)C2COc3ccccc3C2)ccc1-c1cnco1` (racemic) [Compound 12, N-(3-methoxy-4-(oxazol-5-yl)phenyl) chromane-3-carboxamide], for which the “Cell proliferation within one week [%]” value amounted to 230%.

In the case of `COc1ccc2c(c1)OC(C(=O)Nc1ccc(-c3cnco3)c(OC)c1)CO2` (racemic) [Compound 20, 7-methoxy-N-(3-methoxy-4-(oxazol-5-yl)phenyl)-2,3-dihydrobenzo[b][1,4]dioxine-2-carboxamide], the “Cell proliferation within one week [%]” value was 113%. On to `O=C(Nc1ccc(-c2cnco2)c(Cl)c1)C1COc2ccccc2C1` (single isomer, unassigned; (-)) [Compound 21, (−)-N-(3-chloro-4-(1,3-oxazol-5-yl)phenyl)chromane-3-carboxamide], for which the “Cell proliferation within one week [%]” value came to 126%.

As for `O=C(Nc1ccc(-c2nnco2)c(F)c1)C1COc2ccccc2C1` (racemic) [Compound 29, N-(3-fluoro-4-(1,3,4-oxadiazol-2-yl)phenyl)chromane-3-carboxamide], the “Cell proliferation within one week [%]” value was determined as 108%. On to `O=C(Nc1ccc(-c2cnco2)c(F)c1)C1COc2ccccc2C1` (racemic) [Compound 5, N-(3-fluoro-4-(oxazol-5-yl)phenyl)chromane-3-carboxamide], for which the “Cell proliferation within one week [%]” value amounted to 133%. For the compound `Cc1cc(NC(=O)C2COc3ccccc3C2)ccc1-c1cnco1` (racemic) [Compound 22, N-(3-methyl-4-(oxazol-5-yl)phenyl) chromane-3-carboxamide], the “Cell proliferation within one week [%]” value was 120%.

On to `COc1ccc2c(c1)CC(C(=O)Nc1ccc(-c3cnco3)c(Cl)c1)CO2` (racemic) [Compound 3, N-(3-chloro-4-(oxazol-5-yl)phenyl)-6-methoxychromane-3-carboxamide], for which the “Cell proliferation within one week [%]” value is reported as 138%. Same read-out and setting: then “N-(2-(difluoromethoxy)-4-(oxazol-5-yl)phenyl)chroman-3-carboxamide [Compound 26]”, with 138%.

Regarding `O=C(Nc1ccc(-c2cnco2)c(Cl)c1)C1COc2ccccc2O1` (racemic) [Compound 6, N-(3-chloro-4-(oxazol-5-yl)phenyl)-2,3-dihydrobenzo[b][1,4]dioxine-2-carboxamide], the “Cell proliferation within one week [%]” value was determined as 120%.

As for `COc1ccc2c(c1)OC(C(=O)Nc1ccc(-c3ccncc3)c(OC)c1)CO2` (racemic) [Compound 18, 7-methoxy-N-(3-methoxy-4-(pyridin-4-yl)phenyl)-2,3-dihydrobenzo[b][1,4]dioxine-2-carboxamide], the “Cell proliferation within one week [%]” value amounted to 104%.

As to `O=C(Nc1ccc(-c2cnco2)c(Cl)c1)C1Cc2ccccc2O1` (racemic) [Compound 31, N-(3-chloro-4-(oxazol-5-yl)phenyl)-2,3-dihydrobenzofuran-2-carboxamide], the “Cell proliferation within one week [%]” value is recorded as 137%. The same measure, in the same setting: then `O=C(Nc1ccc(-c2cnco2)c(Cl)c1)C1CCOc2ccccc21` (racemic) [Compound 32, N-(3-chloro-4-(oxazol-5-yl)phenyl)chromane-4-carboxamide], with 113%.

Still in this assay, the particulars now being: within one week, over control.
`COc1ccc2c(c1)CC(C(=O)Nc1ccc(-c3cnco3)c(OC)c1)CO2` (racemic) [Compound 14, 6-methoxy-N-(3-methoxy-4-(oxazol-5-yl)phenyl)chromane-3-carboxamide]: the “increase of cell proliferation” value is 96%. Consider `O=C(Nc1ccc(-c2cnco2)c(Cl)c1)C1COc2ccccc2C1` (racemic) [Compound 1, N-(3-chloro-4-(1,3-oxazol-5-yl)phenyl) chromane-3-carboxamide], for which the “increase of cell proliferation” value amounted to 79%. With `COc1cc(NC(=O)C2COc3ccccc3C2)ccc1-c1cnco1` (racemic) [Compound 12, N-(3-methoxy-4-(oxazol-5-yl)phenyl) chromane-3-carboxamide], the “increase of cell proliferation” value was 130%.
